Test results published in publication PMC2009384, “The carcinogenicity of polycyclic hydrocarbon epoxides in newborn mice” (British Journal of Cancer, 1975).

Key:
newborn Swiss mice = experiment: Experiment I: carcinogenicity in newborn mice, benz(a)anthracene vs its K region epoxide (s.c. injection, tumour incidence to 70-75 weeks)
Source text: Br. J. Cancer (1975) 31, 182 THE CARCINOGENICITY OF POLYCYCLIC HYDROCARBON EPOXIDES IN NEWBORN MICE P. L. GROVER, P. SIMS, B. C. V. MITCHLEY AND F. J. C. ROE From the Chester Beatty Research Institute, Institute of Cancer Research, Royal Cancer Hospital, Fulham Road, London, SW3 6JB Received 9 August 1974. […] THE HYPOTHESIS that the carcino- genicity of polycyclic hydrocarbons is associated with the formation of epoxide metabolites (Grover, Hewer and Sims, 1971, 1972; Keysell et al., 1973) is sup- ported by some experimental evidence but remains unproven. […] The epoxides can also act as alkylating agents (Grover and Sims, 1970) and as mutagens (Ames, Sims and Grover, 1972; Huberman et al., 1971; Cookson, Sims and Grover, 1971; Fahmy and Fahmy, 1973). […] The newborn mouse, which is susceptible to carcinogenic polycyclic hydrocarbons (Roe, Rowson and Salaman, 1961; Roe, Mitchley and Walters, 1963; Walters and Roe, 1964, 1966) can be considered as a convenient source of several types of rapidly dividing cells. Consequently we have tested the K region epoxides derived from phenanthrene, benz(a)anthracene, 7-methylbenz(a)anthracene, dibenz(a,h)- anthracene, chrysene and 3-methylchol- anthrene, together with some of the CARCINOGENICITY OF POLYCYCLIC HYDROCARBON EPOXIDES IN MICE 183 parent hydrocarbons, for carcinogenicity using newborn mice. This paper presents the results that were obtained in these experiments. MATERIALS AND METHODS The polycyclic hydrocarbon epoxides, phenanthrene 9,10-oxide, benz(a)anthracene 5,6-oxide, 7-methylbenz(a)anthracene 5,6- oxide, dibenz(a,h)anthracene 5,6-oxide, chry- sene 5,6-oxide and 3-methylcholanthrene 11,12-oxide were prepared from the parent hydrocarbons (Newman and Blum, 1964; Boyland and Sims, 1965; Sims 1966). Two experiments were undertaken fol- lowing similar protocols. For each experi- ment Swiss mice from a specific pathogen- free colony were time mated so as to produce a large number of litters over the course of 2 or 3 days. […] Test compounds were suspended in poly- ethylene glycol (PEG) 400 and injections of 0-02 ml of the suspension were given by introducing a 25 gauge hypodermic needle through the skin near the root of the tail and threading it subcutaneously to deliver the injected material in the interscapular region. Injections were given to every mouse on the first day or first 3 days of life. The details of treatments and numbers of mice of each sex in each group are shown in Table I (Experiment I) and Table II (Ex- periment II). Surviving mice were weaned when they w ere 21 days old. Thereafter, males and females w ere separated and housed 6 per cage in metal boxes. A mixture of sawdust and wood shavings was used as bedding. The mice were fed on a standard cubed diet (Formulation 86 from C. Holdman and Sons (Plow co Feeds), Byers Lane, South Godstone, Surrey) and water was given ad libitum. Mice were inspected daily, and at weekly intervals they were weighed and palpated for tumours and other lesions. […] The experiment was terminated when surviving mice were between 70 and 75 weeks old. A full routine post- mortem examination, which included disten- sion of the urinary bladder with fixative, was carried out. The number of lesions thought to be neoplasms and the size of the largest such lesion in each organ affected were recorded. All tissues with suspected neoplasms were fixed in Bouin's solution. Haematoxylin and eosin stained 5 µm paraffin wax sections were prepared and examined microscopically. RESULTS The results of the two experiments in terms of tumour incidence are sum- marized in […].

newborn mice = settings: ref Roe and Walters, 1967; cited from earlier work
[1] = Groups A, B and C, 3 x 200, 100, 50 µg s.c.
[2] = females, 50 µg per treatment s.c. on Days 0, 1 and 2
[3] = females, 50 µg per treatment s.c. on Days 0, 1 and 2 in PEG 400
[4] = females, 100 µg per treatment s.c. on Days 0, 1 and 2
[5] = females, 100 µg per treatment s.c. on Days 0, 1 and 2 in PEG 400
[6] = females, 200 µg per treatment s.c. on Days 0, 1 and 2
[7] = females, 200 µg per treatment s.c. on Days 0, 1 and 2 in PEG 400
[8] = males, 50 µg per treatment s.c. on Days 0, 1 and 2
[9] = males, 50 µg per treatment s.c. on Days 0, 1 and 2 in PEG 400
[10] = males, 100 µg per treatment s.c. on Days 0, 1 and 2
[11] = males, 100 µg per treatment s.c. on Days 0, 1 and 2 in PEG 400
[12] = males, 200 µg per treatment s.c. on Days 0, 1 and 2
[13] = males, 200 µg per treatment s.c. on Days 0, 1 and 2 in PEG 400

With `c1ccc2cc3c(ccc4ccccc43)cc2c1` [Benz(a)anthracene, reference compound] the “effect on the incidence of liver tumours in male mice” value (newborn Swiss mice; [1]) was “dose related effect”, the “effect on the incidence of lung tumours in mice of both sexes” value (newborn Swiss mice; [1]) was “dose related effect” and the “No. of mice examined at p.m. at termination of experiment (70th-75th week) with liver tumours” value (newborn Swiss mice; [2]) was 2. For the same compound, the “No. of mice examined at p.m. at termination of experiment (70th-75th week) with lung tumours” value (newborn Swiss mice; [2]) was 7, the “No. of mice examined at p.m. at termination of experiment (70th-75th week) with multiple liver tumours” value (newborn Swiss mice; [2]) was 1 and the “No. of mice examined at p.m. at termination of experiment (70th-75th week) with multiple lung tumours” value (newborn Swiss mice; [2]) was 3. For the same compound, the “No. of mice examined at p.m. at termination of experiment (70th-75th week) with other tumours” value (newborn Swiss mice; [2]) was 0, the “No. of mice examined at p.m. from 50th-70th week with liver tumours” value (newborn Swiss mice; [2]) was 0 and the “No. of mice examined at p.m. from 50th-70th week with lung tumours” value (newborn Swiss mice; [2]) was 1. For the same compound, the “No. of mice examined at p.m. from 50th-70th week with other tumours” value (newborn Swiss mice; [2]) was 0, the “No. of survivors at 50 weeks” value (newborn Swiss mice; [3]) was 25 and the “No. of survivors at 70 weeks” value (newborn Swiss mice; [3]) was 21. For the same compound, the “No. of mice examined at p.m. at termination of experiment (70th-75th week) with liver tumours” value (newborn Swiss mice; [4]) was 0, the “No. of mice examined at p.m. at termination of experiment (70th-75th week) with lung tumours” value (newborn Swiss mice; [4]) was 5 and the “No. of mice examined at p.m. at termination of experiment (70th-75th week) with multiple liver tumours” value (newborn Swiss mice; [4]) was 0. The “No. of mice examined at p.m. at termination of experiment (70th-75th week) with multiple lung tumours” value (newborn Swiss mice; [4]) was 2, the “No. of mice examined at p.m. at termination of experiment (70th-75th week) with other tumours” value (newborn Swiss mice; [4]) was 0 and the “No. of mice examined at p.m. from 50th-70th week with liver tumours” value (newborn Swiss mice; [4]) was 0. For the same compound, the “No. of mice examined at p.m. from 50th-70th week with lung tumours” value (newborn Swiss mice; [4]) was 2, the “No. of mice examined at p.m. from 50th-70th week with other tumours” value (newborn Swiss mice; [4]) was 0 and the “No. of survivors at 50 weeks” value (newborn Swiss mice; [5]) was 17. The “No. of survivors at 70 weeks” value (newborn Swiss mice; [5]) was 13, the “No. of mice examined at p.m. at termination of experiment (70th-75th week) with liver tumours” value (newborn Swiss mice; [6]) was 2 and the “No. of mice examined at p.m. at termination of experiment (70th-75th week) with lung tumours” value (newborn Swiss mice; [6]) was 10. The “No. of mice examined at p.m. at termination of experiment (70th-75th week) with multiple liver tumours” value (newborn Swiss mice; [6]) was 1, the “No. of mice examined at p.m. at termination of experiment (70th-75th week) with multiple lung tumours” value (newborn Swiss mice; [6]) was 10 and the “No. of mice examined at p.m. at termination of experiment (70th-75th week) with other tumours” value (newborn Swiss mice; [6]) was 1. For the same compound, the “No. of mice examined at p.m. from 50th-70th week with liver tumours” value (newborn Swiss mice; [6]) was 0, the “No. of mice examined at p.m. from 50th-70th week with lung tumours” value (newborn Swiss mice; [6]) was 0 and the “No. of mice examined at p.m. from 50th-70th week with other tumours” value (newborn Swiss mice; [6]) was 0. The “No. of survivors at 50 weeks” value (newborn Swiss mice; [7]) was 18, the “No. of survivors at 70 weeks” value (newborn Swiss mice; [7]) was 18 and the “No. of mice examined at p.m. at termination of experiment (70th-75th week) with liver tumours” value (newborn Swiss mice; [8]) was 9. For the same compound, the “No. of mice examined at p.m. at termination of experiment (70th-75th week) with lung tumours” value (newborn Swiss mice; [8]) was 5, the “No. of mice examined at p.m. at termination of experiment (70th-75th week) with multiple liver tumours” value (newborn Swiss mice; [8]) was 5 and the “No. of mice examined at p.m. at termination of experiment (70th-75th week) with multiple lung tumours” value (newborn Swiss mice; [8]) was 2. For the same compound, the “No. of mice examined at p.m. at termination of experiment (70th-75th week) with other tumours” value (newborn Swiss mice; [8]) was 0, the “No. of mice examined at p.m. from 50th-70th week with liver tumours” value (newborn Swiss mice; [8]) was 3 and the “No. of mice examined at p.m. from 50th-70th week with lung tumours” value (newborn Swiss mice; [8]) was 1. The “No. of mice examined at p.m. from 50th-70th week with other tumours” value (newborn Swiss mice; [8]) was 0, the “No. of survivors at 50 weeks” value (newborn Swiss mice; [9]) was 29 and the “No. of survivors at 70 weeks” value (newborn Swiss mice; [9]) was 25. For the same compound, the “No. of mice examined at p.m. at termination of experiment (70th-75th week) with liver tumours” value (newborn Swiss mice; [10]) was 15, the “No. of mice examined at p.m. at termination of experiment (70th-75th week) with lung tumours” value (newborn Swiss mice; [10]) was 5 and the “No. of mice examined at p.m. at termination of experiment (70th-75th week) with multiple liver tumours” value (newborn Swiss mice; [10]) was 11. The “No. of mice examined at p.m. at termination of experiment (70th-75th week) with multiple lung tumours” value (newborn Swiss mice; [10]) was 3, the “No. of mice examined at p.m. at termination of experiment (70th-75th week) with other tumours” value (newborn Swiss mice; [10]) was 1 and the “No. of mice examined at p.m. from 50th-70th week with liver tumours” value (newborn Swiss mice; [10]) was 4. The “No. of mice examined at p.m. from 50th-70th week with lung tumours” value (newborn Swiss mice; [10]) was 1, the “No. of mice examined at p.m. from 50th-70th week with other tumours” value (newborn Swiss mice; [10]) was 0 and the “No. of survivors at 50 weeks” value (newborn Swiss mice; [11]) was 25. The “No. of survivors at 70 weeks” value (newborn Swiss mice; [11]) was 19, the “No. of mice examined at p.m. at termination of experiment (70th-75th week) with liver tumours” value (newborn Swiss mice; [12]) was 15 and the “No. of mice examined at p.m. at termination of experiment (70th-75th week) with lung tumours” value (newborn Swiss mice; [12]) was 4. For the same compound, the “No. of mice examined at p.m. at termination of experiment (70th-75th week) with multiple liver tumours” value (newborn Swiss mice; [12]) was 15, the “No. of mice examined at p.m. at termination of experiment (70th-75th week) with multiple lung tumours” value (newborn Swiss mice; [12]) was 4 and the “No. of mice examined at p.m. at termination of experiment (70th-75th week) with other tumours” value (newborn Swiss mice; [12]) was 0. The “No. of mice examined at p.m. from 50th-70th week with liver tumours” value (newborn Swiss mice; [12]) was 1, the “No. of mice examined at p.m. from 50th-70th week with lung tumours” value (newborn Swiss mice; [12]) was 1 and the “No. of mice examined at p.m. from 50th-70th week with other tumours” value (newborn Swiss mice; [12]) was 0. For the same compound, the “No. of survivors at 50 weeks” value (newborn Swiss mice; [13]) was 18 and the “No. of survivors at 70 weeks” value (newborn Swiss mice; [13]) was 15.

For `c1ccc2c(c1)ccc1ccccc12` [phenanthrene], the “activity in newborn mice” value (newborn mice) is given as “inactive”.
